These results are taken from patent publication US4835185A, “Immunomodulator for improving commercial performance of domestic animals” (Iowa State University Research Foundation, Inc., priority 1987, dated 1989).

Details of the series: species or system pigs. The note with it: pig, in vivo. The source says:
In experiment 1, sixteen female pigs weighing 20-30 kg were used. Seven days before study, catheters were surgically placed in the right atria for blood sampling. Animals were housed in individual cages during the recovery period and had free access to water. Preceding the experiment, animals were fed twice daily a basal diet (2% of body weight per feeding). The basal diet consisted of a corn-soybean mix, adequate in all minerals and vitamins and containing approximately 14% crude protein. Test meals were formulated by additions to a basal diet. Five animals received the basal diet (control); five animals received the leucine meal, which had 2% leucine added to the basal diet; and six animals received the KIC diet, which had 2% KIC (sodium salt equivalent to 1.7% free acid) added to the basel diet. Studies were begun between 0800 and 0900 h after a 24-hr fast. Basal blood samples were taken at -20, -10 and -5 min. Animals were then offered 100 g of their respective test meal (time 0). Pigs were included in the study only if they consumed the entire meal in the first 20 min. Blood was sampled every 30 min from 120 to 240 min. Plasma was separated, Trasylol (FBA Pharmaceuticals, New York, NY) added (50 ul/ml), and plasma stored at -70 C. until analyzed.
Cortisol was measured by coated tube kits (Gammacoat, Travenol-Genetech Diagnostics, Cambridge, MA). Leucine and KIC were measured by high pressure liquid chromatography. Crystalline leucine was obtained from Sigma Chemical (St. Louis, MO) and KIC-sodium was obtained from SOBAC (Paris, France). Statistical analysis of the individual pig responses was conducted on mean plasma concentrations before the meal (-20 to 0 min) and after the meal (120 to 240 min). When the overall treatment F-value was significant, differences between individual treatments were determined using the pooled SEM and a T-test.

With `CC(C)CC(=O)C(=O)O` [KIC, alpha-ketoisocaproate], the “Plasma KIC, Change” value was determined as 56 µM; the “Plasma leucine, Change” value worked out at 182 µM; the plasma leucine concentration entry was “doubling”. Besides, under “240 min”, the “Plasma KIC, Post” value stood at 102 µM and the “Plasma leucine, Post” value was determined as 312 µM.
